The text below walks through data of patent US20250206730A1 (AUTOTELIC BIO INC., priority 2022, published 2025).

What is called IC50 is the concentration that inhibits the measured activity by half.

Bounds are passed on as bounds.

The target in one experiment is T1, ALK5 kinase (Homo sapiens, UniProt P36897).
T1 sequence (P36897 34-503): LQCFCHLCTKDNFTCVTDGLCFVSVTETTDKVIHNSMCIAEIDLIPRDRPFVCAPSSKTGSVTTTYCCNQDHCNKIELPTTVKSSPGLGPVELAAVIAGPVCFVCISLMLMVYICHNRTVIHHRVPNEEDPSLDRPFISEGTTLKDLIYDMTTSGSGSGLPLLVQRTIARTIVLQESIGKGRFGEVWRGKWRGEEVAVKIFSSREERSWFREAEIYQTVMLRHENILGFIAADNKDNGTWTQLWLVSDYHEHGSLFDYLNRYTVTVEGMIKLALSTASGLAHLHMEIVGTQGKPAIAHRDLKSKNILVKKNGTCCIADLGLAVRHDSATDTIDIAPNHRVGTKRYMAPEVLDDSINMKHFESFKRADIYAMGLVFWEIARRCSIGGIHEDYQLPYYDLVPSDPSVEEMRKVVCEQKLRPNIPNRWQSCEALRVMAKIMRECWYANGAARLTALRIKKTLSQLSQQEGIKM
The experiment can be described thus: LanthaScreen Eu Kinase Binding Assay. The note with it: Kinase Tracer 178, Eu-anti-GST Antibody, read-out: IC50 Enzyme. Here is the method: [Example 1] LanthaScreen Eu Kinase Binding Assay
4 μL of 4× Test Compound in 4% DMSO and 4 μL of 4× Kinase in Kinase buffer were added to wells (low volume, white 384-well plate (Greiner Cat. #784207)). The plate was shaken for 30 seconds, centrifuged for 10 seconds at 1000 rpm, and incubated at RT for 30 minutes. Then, 4 μL of 4× Eu-anti-GST Antibody and 4 μL of 4× Kinase Tracer 178 were added to the wells. The plate was shaken for 30 seconds, centrifuged for 10 seconds at 1000 rpm, and incubated at RT for 60 minutes. Fluorescence was measured by a plate reader, Biotek Synergy H1 (Vermont, USA) under the following conditions. • Excitation: 340 nm (3 nm bandpass) • Kinase tracer emission: 665 nm (10 nm bandpass) • Eu Ab emission: 615 nm (10 nm bandpass) • Emission ratio=665 nm (tracer)/615 nm (Eu Ab) • The higher the binding affinity of compound to ALK5 kinase is, the less the emission ratio is.
In general terms: TR-FRET usually uses a lanthanide donor and a delayed reading to cut background.

The next experiment deals with TGF-β signaling. The experiment can be described thus: Assay for evaluating cellular inhibition of TGF-β signaling, 4T1 (SBE-luc2P) luciferase reporter. Type of experiment: cell-based. To be noted: Mus musculus, 4T1, 4T1 (SBE-luc2P) transient pool, 0.2% FBS, 2 h pre-treatment, TGF-β1 2 ng/mL 24 h; read-out: IC50 4T1 Cell. Here is the method: [Example 2] Assay for Evaluating Cellular Inhibition of TGF-β Signaling
4T1 (SBE-luc2P) transient pool that have SBE-luc2P (hygro) expression plasmid or HEK293 (SBE reporter) stable cells (BPS bioscience) were seeded at 6×10^3 cells/well or 2.5×10^4 cells/well in 96-well plate, respectively. 4T1 (SBE-luc2P) transient pool were pre-treated with novel compound synthesized in Example 1 above in 0.2% FBS at approximately 60% confluence at 37° C. in 5% CO2. Also, HEK293 (SBE reporter) stable cells were pre-treated with each test compounds of formula in 0.5% FBS at approximately 80% confluence at 37° C. in 5% CO2. After 2 hours, cells were treated with TGF-β1 (2 ng/mL) for 24 h at 37° C. in 5% CO2. Cell lysates were prepared using Luciferase Assay (Promega) according to the manufacturer's instruction, and luminescence was measured by a plate reader, Biotek Synergy H1 (Vermont, USA).

In the case of `Nc1nc(-c2ccccc2)c(Oc2ccnc(Nc3cccc(S(N)(=O)=O)c3)c2)s1` [A-1, 3-((4-((2-Amino-4-phenylthiazol-5-yl)oxy)pyridin-2-yl)amino)benzenesulfonamide], the IC50 on ALK5 kinase and in the experiment on TGF-β signaling was less than 100 nM each time. Turning to `NC(=O)c1cccc(Nc2cc(Oc3sc(N)nc3-c3ccccc3)ccn2)c1` [A-2, 3-((4-((2-Amino-4-phenylthiazol-5-yl)oxy)pyridin-2-yl)amino)benzamide], the 50% inhibitory concentration (IC50) on ALK5 kinase and in the experiment on TGF-β signaling was less than 100 nM in each case. Take `COC(=O)c1cccc(Nc2cc(Oc3sc(N)nc3-c3ccccc3)ccn2)c1` [A-3, Methyl 3-((4-((2-amino-4-phenylthiazol-5-yl)oxy)pyridin-2-yl)amino)benzoate]: the IC50 at ALK5 kinase was less than 100 nM; in the experiment on TGF-β signaling it was greater than 100 nM. As to `Nc1nc(-c2ccccc2)c(Oc2ccnc(Nc3ccc(S(N)(=O)=O)cc3)c2)s1` [A-4, 4-((4-((2-Amino-4-phenylthiazol-5-yl)oxy)pyridin-2-yl)amino)benzenesulfonamide], the concentration for half-maximal inhibition (IC50) on ALK5 kinase is less than 100 nM; in the experiment with TGF-β signaling, greater than 100 nM. The corresponding values for `NC(=O)c1ccc(Nc2cc(Oc3sc(N)nc3-c3ccccc3)ccn2)cc1` [A-5, 4-((4-((2-Amino-4-phenylthiazol-5-yl)oxy)pyridin-2-yl)amino)benzamide] are less than 100 nM and greater than 100 nM. As to `NC(=O)c1ccc(Nc2cc(Oc3sc(N)nc3-c3ccccc3)ccn2)nc1` [A-9, 6-((4-((2-Amino-4-phenylthiazol-5-yl)oxy)pyridin-2-yl)amino)nicotinamide], the IC50 at ALK5 kinase and in the experiment with TGF-β signaling was less than 100 nM each time.

For `CN(C)C(=O)c1cccc(Nc2cc(Oc3sc(N)nc3-c3ccccc3)ccn2)c1` [A-10, 3-((4-((2-Amino-4-phenylthiazol-5-yl)oxy)pyridin-2-yl)amino)-N,N-dimethylbenzamide], the 50% inhibitory concentration (IC50) was less than 100 nM on ALK5 kinase and greater than 100 nM in the experiment with TGF-β signaling. With `CS(=O)(=O)Nc1cccc(Nc2cc(Oc3sc(N)nc3-c3ccccc3)ccn2)c1` [A-14, N-(3-((4-((2-Amino-4-phenylthiazol-5-yl)oxy)pyridin-2-yl)amino)phenyl)methanesulfonamide], the half-inhibitory concentration (IC50) at ALK5 kinase and with TGF-β signaling was less than 100 nM each time. As to `Nc1nc(-c2ccccc2)c(Oc2ccnc(Nc3ccc(C(=O)O)cc3)c2)s1` [A-39, 4-((4-((2-Amino-4-phenylthiazol-5-yl)oxy)pyridin-2-yl)amino)benzoic acid], the IC50 on ALK5 kinase was less than 100 nM; in the experiment on TGF-β signaling, greater than 100 nM. The corresponding values for `Nc1nc(-c2ccccc2)c(Oc2ccnc(Nc3cccc(C(=O)O)c3)c2)s1` [A-40, 3-((4-((2-Amino-4-phenylthiazol-5-yl)oxy)pyridin-2-yl)amino)benzoic acid] are less than 100 nM and greater than 100 nM. Take `CC(C)(O)c1cccc(Nc2cc(Oc3sc(N)nc3-c3ccccc3)ccn2)c1` [A-41, 2-(3-((4-((2-Amino-4-phenylthiazol-5-yl)oxy)pyridin-2-yl)amino)phenyl)propan-2-ol]: the IC50 is less than 100 nM at ALK5 kinase and greater than 100 nM in the experiment with TGF-β signaling. For the compound `CC(C)(O)c1cc(Nc2cc(Oc3sc(N)nc3-c3ccccc3)ccn2)ccn1` [A-42, 2-(4-((4-((2-Amino-4-phenylthiazol-5-yl)oxy)pyridin-2-yl)amino)pyridin-2-yl)propan-2-ol], the IC50 on ALK5 kinase was less than 100 nM; with TGF-β signaling it was greater than 100 nM. For the compound `CC(C)(O)c1ccc(Nc2cc(Oc3sc(N)nc3-c3ccccc3)ccn2)cn1` [A-43, 2-(5-((4-((2-Amino-4-phenylthiazol-5-yl)oxy)pyridin-2-yl)amino)pyridin-2-yl)propan-2-ol], the IC50 was less than 100 nM at ALK5 kinase and greater than 100 nM in the experiment with TGF-β signaling. As for `CC(C)(O)c1cccc(Nc2cc(Oc3sc(NC4CC4)nc3-c3ccccc3)ccn2)c1` [A-44, 2-(3-((4-((2-(Cyclopropylamino)-4-phenylthiazol-5-yl)oxy)pyridin-2-yl)amino)phenyl)propan-2-ol], the concentration for half-maximal inhibition (IC50) at ALK5 kinase is less than 100 nM; in the experiment with TGF-β signaling, greater than 100 nM. As for `NS(=O)(=O)c1cccc(Nc2cc(Oc3sc(NC4CC4)nc3-c3ccccc3)ccn2)c1` [A-45, 3-((4-((2-(Cyclopropylamino)-4-phenylthiazol-5-yl)oxy)pyridin-2-yl)amino)benzenesulfonamide], the IC50 was less than 100 nM at ALK5 kinase and greater than 100 nM in the experiment with TGF-β signaling. Consider `NC(=O)c1cccc(Nc2cc(Oc3sc(NC4CC4)nc3-c3ccccc3)ccn2)c1` [A-46, 3-((4-((2-(Cyclopropylamino)-4-phenylthiazol-5-yl)oxy)pyridin-2-yl)amino)benzamide], for which the concentration for half-maximal inhibition (IC50) at ALK5 kinase was less than 100 nM. For the compound `NC(=O)c1ccc(Nc2cc(Oc3sc(NC4CC4)nc3-c3ccccc3)ccn2)cc1` [A-47, 4-((4-((2-(Cyclopropylamino)-4-phenylthiazol-5-yl)oxy)pyridin-2-yl)amino)benzamide], the IC50 at ALK5 kinase and with TGF-β signaling was greater than 100 nM in each case. Consider `O=C(O)c1cccc(Nc2cc(Oc3sc(NC4CC4)nc3-c3ccccc3)ccn2)c1` [A-48, 3-((4-((2-(Cyclopropylamino)-4-phenylthiazol-5-yl)oxy)pyridin-2-yl)amino)benzoic acid], for which the half-inhibitory concentration (IC50) is less than 100 nM on ALK5 kinase and greater than 100 nM in the experiment with TGF-β signaling.

Consider `O=C(O)c1ccc(Nc2cc(Oc3sc(NC4CC4)nc3-c3ccccc3)ccn2)cc1` [A-49, 4-((4-((2-(Cyclopropylamino)-4-phenylthiazol-5-yl)oxy)pyridin-2-yl)amino)benzoic acid], for which the concentration for half-maximal inhibition (IC50) at ALK5 kinase was less than 100 nM; in the experiment on TGF-β signaling, greater than 100 nM. The corresponding values for `CNc1nc(-c2ccccc2)c(Oc2ccnc(Nc3cccc(C(C)(C)O)c3)c2)s1` [A-50, 2-(3-((4-((2-(Methylamino)-4-phenylthiazol-5-yl)oxy)pyridin-2-yl)amino)phenyl)propan-2-ol] are less than 100 nM and greater than 100 nM.

`CNc1nc(-c2ccccc2)c(Oc2ccnc(Nc3cccc(S(N)(=O)=O)c3)c2)s1` [A-51, 3-((4-((2-(Methylamino)-4-phenylthiazol-5-yl)oxy)pyridin-2-yl)amino)benzenesulfonamide]: the IC50 at ALK5 kinase and in the experiment with TGF-β signaling was less than 100 nM each time. Turning to `CNc1nc(-c2ccccc2)c(Oc2ccnc(Nc3cccc(C(N)=O)c3)c2)s1` [A-52, 3-((4-((2-(Methylamino)-4-phenylthiazol-5-yl)oxy)pyridin-2-yl)amino)benzamide], the IC50 on ALK5 kinase is less than 100 nM; with TGF-β signaling, greater than 100 nM.

Take `CNc1nc(-c2ccccc2)c(Oc2ccnc(Nc3ccc(S(N)(=O)=O)cc3)c2)s1` [A-53, 4-((4-((2-(Methylamino)-4-phenylthiazol-5-yl)oxy)pyridin-2-yl)amino)benzenesulfonamide]: the IC50 at ALK5 kinase was less than 100 nM.

In the case of `CNc1nc(-c2ccccc2)c(Oc2ccnc(Nc3ccnc(C(C)(C)O)c3)c2)s1` [A-54, 2-(4-((4-((2-(Methylamino)-4-phenylthiazol-5-yl)oxy)pyridin-2-yl)amino)pyridin-2-yl)propan-2-ol], the 50% inhibitory concentration (IC50) on ALK5 kinase is less than 100 nM. Same read-out and setting: the same measure for `CNc1nc(-c2ccccc2)c(Oc2ccnc(Nc3ccc(C(C)(C)O)nc3)c2)s1` [A-55, 2-(5-((4-((2-(Methylamino)-4-phenylthiazol-5-yl)oxy)pyridin-2-yl)amino)pyridin-2-yl)propan-2-ol]: less than 100 nM. For the compound `CNc1nc(-c2ccccc2)c(Oc2ccnc(Nc3ccc(C(=O)O)cc3)c2)s1` [A-56, 4-((4-((2-(Methylamino)-4-phenylthiazol-5-yl)oxy)pyridin-2-yl)amino)benzoic acid], the IC50 was less than 100 nM on ALK5 kinase and greater than 100 nM in the experiment with TGF-β signaling.

As to `NC(=O)c1ccc(Nc2cc(Oc3sc(C4CCCC4)nc3-c3ccccc3)ccn2)nc1` [A-173, 6-((4-((2-Cyclopentyl-4-phenylthiazol-5-yl)oxy)pyridin-2-yl)amino)nicotinamide], at ALK5 kinase, the half-maximal inhibitory concentration (IC50) was greater than 100 nM. On to `Cc1cccc(-c2nc(N)sc2Oc2ccnc(Nc3cccc(S(N)(=O)=O)c3)c2)n1` [A-247, 3-((4-((2-Amino-4-(6-methylpyridin-2-yl)thiazol-5-yl)oxy)pyridin-2-yl)amino)benzenesulfonamide], for which the IC50 on ALK5 kinase was less than 100 nM.
